Measured values from patent US6914045B2, “Glycopeptide antibiotics” (Wyeth Holdings Corporation, priority 2001, dated 2005).
≈ marks a conversion by molar mass, not a printed value.

Assays:
Test in all cases: in vitro antibacterial evaluation, MIC by broth dilution
Assay type in all cases: cell-based
[1] = test system: Enterococcus sp.; settings: broth dilution, 18 hours at 35° C.
Summary of the method: (§1)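 MIC, the lowest antibiotic concentration preventing growth, was read across 64-0.06 μg/mL with 5×10^5 CFU/mL inoculum. Method followed NCCLS M7-A2 broth dilution using Mueller-Hinton II; Gram-positive strains covered recent methicillin-, penicillin- and/or vancomycin-resistant clinical isolates.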

[2] = test system: Staphylococcus sp.; settings: broth dilution, 18 hours at 35° C.
Summary of the method: as §1

[3] = test system: Streptococcus sp.; settings: broth dilution, 18 hours at 35° C.
Summary of the method: as §1

[4] = test system: Escherichia coli; settings: 18 hours at 35° C.
Summary of the method: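 Inoculum 5×10^5 CFU/mL; concentrations 64 to 0.06 μg/mL; MIC defined as lowest inhibitory level. Conducted by broth dilution under NCCLS guidelines.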

[5] = Enterococcus faecalis (ATCC 29212)
[6] = Enterococcus faecalis (GC 4553)
[7] = Enterococcus faecalis (GC 4554)
[8] = Enterococcus faecalis (GC 6189)

CC(C)CC(=O)OCC1OC(OC2C(CO)OC(Oc3ccc(CC4NC(=O)C(Cc5ccccc5)NC(=O)CNC(=O)C(CO)NC(=O)C(C(O)C5CNC(=N)N5C5OC(CO)C(O)C(O)C5O)NC(=O)C(C(O)C5CNC(=N)N5)NC4=O)cc3)C(O)C2O)C(O)C(O)C1O (centres unmarked) [Example 283c, Cyclo[glycylphenylalanyl-O-[4-O-[6-O-(3-methylbutanoyl)-hexopyranosyl]hexopyranosyl]tyrosyl-3-(2-iminoimidazolidin-4-yl)seryl-3-(3-hexopyranosyl-2-iminoimidazolidin-4-yl)serylseryl]]
MIC Enterococcus avium (GC 4558) ([1]; Enterococcus avium (GC 4558)): 128 µg/mL (≈ 93.7 µM)
MIC Enterococcus faecalis (ATCC 29212) [1, 5]: 128 µg/mL (≈ 93.7 µM)
MIC Enterococcus faecalis (GC 4553) [1, 6]: 128 µg/mL (≈ 93.7 µM)
MIC Enterococcus faecalis (GC 4554) [1, 7]: >128 µg/mL
MIC Enterococcus faecalis (GC 6189) [1, 8]: 128 µg/mL (≈ 93.7 µM)
MIC Enterococcus faecium (GC 2243) ([1]; Enterococcus faecium (GC 2243)): 128 µg/mL (≈ 93.7 µM)
MIC Enterococcus faecium (GC 4556) ([1]; Enterococcus faecium (GC 4556)): 128 µg/mL (≈ 93.7 µM)
MIC Enterococcus faecium (GC 4557) ([1]; Enterococcus faecium (GC 4557)): 16 µg/mL (≈ 11.7 µM)
MIC Enterococcus faecalis (ATCC 29212) ([1]; strain ATCC 29212): 128 µg/mL (≈ 93.7 µM)
MIC Enterococcus faecalis (GC 2242) ([1]; strain GC 2242): 128 µg/mL (≈ 93.7 µM)
MIC Enterococcus faecium (GC 2243) ([1]; strain GC 2243): 128 µg/mL (≈ 93.7 µM)
MIC Enterococcus faecalis (GC 2691) ([1]; strain GC 2691): 128 µg/mL (≈ 93.7 µM)
MIC Enterococcus faecalis (GC 3059) ([1]; strain GC 3059): >128 µg/mL
MIC Enterococcus faecalis (GC 4552) ([1]; strain GC 4552): 128 µg/mL (≈ 93.7 µM)
MIC Enterococcus faecalis (GC 4553) ([1]; strain GC 4553): 128 µg/mL (≈ 93.7 µM)
MIC Enterococcus faecalis (GC 4554) ([1]; strain GC 4554): >128 µg/mL
MIC Enterococcus faecium (GC 4556) ([1]; strain GC 4556): 128 µg/mL (≈ 93.7 µM)
MIC Enterococcus faecium (GC 4557) ([1]; strain GC 4557): 16 µg/mL (≈ 11.7 µM)
MIC Enterococcus avium (GC 4558) ([1]; strain GC 4558): 128 µg/mL (≈ 93.7 µM)
MIC Enterococcus faecalis (GC 6189) ([1]; strain GC 6189): 128 µg/mL (≈ 93.7 µM)
MIC Coagulase Negative Staphylococcus (GC 4547) [2]: 16 µg/mL (≈ 11.7 µM)
MIC Coagulase Negative Staphylococcus (GC 4548) [2]: 8 µg/mL (≈ 5.86 µM)
MIC Coagulase Negative Staphylococcus (GC 4549) [2]: 16 µg/mL (≈ 11.7 µM)
MIC Coagulase Negative Staphylococcus (GC 4551) [2]: 32 µg/mL (≈ 23.4 µM)
MIC Staphylococcus aureus (ATCC 29213) [2]: 32 µg/mL (≈ 23.4 µM)
MIC Staphylococcus aureus (GC 1131) [2]: 32 µg/mL (≈ 23.4 µM)
MIC Staphylococcus aureus (GC 3051) [2]: 32 µg/mL (≈ 23.4 µM)
MIC Staphylococcus aureus (GC 3053) [2]: 64 µg/mL (≈ 46.9 µM)
MIC Staphylococcus aureus (GC 4541) [2]: 32 µg/mL (≈ 23.4 µM)
MIC Staphylococcus aureus (GC 4542) [2]: 32 µg/mL (≈ 23.4 µM)
MIC Staphylococcus aureus (GC 4544) [2]: 32 µg/mL (≈ 23.4 µM)
MIC Staphylococcus aureus (GC 4545) [2]: 16 µg/mL (≈ 11.7 µM)
MIC Staphylococcus aureus-SMITH (GC 4543) [2]: 16 µg/mL (≈ 11.7 µM)
MIC Staphylococcus haemolyticus (GC 4546) [2]: 16 µg/mL (≈ 11.7 µM)
MIC Staphylococcus aureus (ATCC 29213) ([2]; strain ATCC 29213): 32 µg/mL (≈ 23.4 µM)
MIC Staphylococcus aureus (GC 1131) ([2]; strain GC 1131): 32 µg/mL (≈ 23.4 µM)
MIC Staphylococcus aureus (GC 3051) ([2]; strain GC 3051): 32 µg/mL (≈ 23.4 µM)
MIC Staphylococcus aureus (GC 3053) ([2]; strain GC 3053): 64 µg/mL (≈ 46.9 µM)
MIC Staphylococcus aureus (GC 4541) ([2]; strain GC 4541): 32 µg/mL (≈ 23.4 µM)
MIC Staphylococcus aureus (GC 4542) ([2]; strain GC 4542): 32 µg/mL (≈ 23.4 µM)
MIC Staphylococcus aureus (GC 4544) ([2]; strain GC 4544): 32 µg/mL (≈ 23.4 µM)
MIC Staphylococcus aureus (GC 4545) ([2]; strain GC 4545): 16 µg/mL (≈ 11.7 µM)
MIC Staphylococcus haemolyticus (GC 4546) ([2]; strain GC 4546): 16 µg/mL (≈ 11.7 µM)
MIC Coagulase Negative Staphylococcus (GC 4547) ([2]; strain GC 4547): 16 µg/mL (≈ 11.7 µM)
MIC Coagulase Negative Staphylococcus (GC 4548) ([2]; strain GC 4548): 8 µg/mL (≈ 5.86 µM)
MIC Coagulase Negative Staphylococcus (GC 4549) ([2]; strain GC 4549): 16 µg/mL (≈ 11.7 µM)
MIC Coagulase Negative Staphylococcus (GC 4551) ([2]; strain GC 4551): 32 µg/mL (≈ 23.4 µM)
MIC Staphylococcus aureus-SMITH (GC 4543) ([2]; strain SMITH GC 4543): 16 µg/mL (≈ 11.7 µM)
MIC Streptococcus pneumoniae (ATCC 6301) ([3]; strain ATCC 6301): 8 µg/mL (≈ 5.86 µM)
MIC Streptococcus pneumoniae (GC 1894) ([3]; strain GC 1894): 4 µg/mL (≈ 2.93 µM)
MIC Streptococcus pyogenes (GC 4563) ([3]; strain GC 4563): 16 µg/mL (≈ 11.7 µM)
MIC Streptococcus agalactiae (GC 4564) ([3]; strain GC 4564): 16 µg/mL (≈ 11.7 µM)
MIC Streptococcus pneumoniae (GC 4565) ([3]; strain GC 4565): 8 µg/mL (≈ 5.86 µM)
MIC Escherichia coli (ATCC 25922) [4]: 128 µg/mL (≈ 93.7 µM)
MIC Escherichia coli (GC 4559) [4]: 128 µg/mL (≈ 93.7 µM)
MIC Escherichia coli (GC 4560) [4]: 8 µg/mL (≈ 5.86 µM)

CC(c1ccccc1)C1NC(=O)CNC(=O)C(CO)NC(=O)C(C(O)C2CNC(=N)N2C2OC(CO)C(O)C(O)C2O)NC(=O)C(C(O)C2CNC(=N)N2)NC(=O)C(Cc2ccc(OC3OC(CO)C(OC4OC(COC(=O)NCc5ccccc5)C(O)C(O)C4O)C(O)C3O)cc2)NC1=O (centres unmarked) [Example 257b]
MIC Enterococcus avium (GC 4558) ([1]; Enterococcus avium (GC 4558)): 0.5 µg/mL (≈ 0.35 µM)
MIC Enterococcus faecalis (ATCC 29212) [1, 5]: 0.5 µg/mL (≈ 0.35 µM)
MIC Enterococcus faecalis (GC 4553) [1, 6]: 0.5 µg/mL (≈ 0.35 µM)
MIC Enterococcus faecalis (GC 4554) [1, 7]: >0.5 µg/mL
MIC Enterococcus faecalis (GC 6189) [1, 8]: 0.5 µg/mL (≈ 0.35 µM)
MIC Enterococcus faecium (GC 2243) ([1]; Enterococcus faecium (GC 2243)): 16 µg/mL (≈ 11.2 µM)
MIC Enterococcus faecium (GC 4556) ([1]; Enterococcus faecium (GC 4556)): 16 µg/mL (≈ 11.2 µM)
MIC Enterococcus faecium (GC 4557) ([1]; Enterococcus faecium (GC 4557)): 2 µg/mL (≈ 1.4 µM)
MIC Enterococcus faecalis (GC 2242) [1]: 0.5 µg/mL (≈ 0.35 µM)
MIC Enterococcus faecalis (GC 2691) [1]: 0.5 µg/mL (≈ 0.35 µM)
MIC Enterococcus faecalis (GC 3059) [1]: 0.5 µg/mL (≈ 0.35 µM)
MIC Enterococcus faecalis (GC 4552) [1]: >0.5 µg/mL
MIC Enterococcus faecalis (ATCC 29212) ([1]; strain ATCC 29212): 0.5 µg/mL (≈ 0.35 µM)
MIC Enterococcus faecalis (GC 2242) ([1]; strain GC 2242): 0.5 µg/mL (≈ 0.35 µM)
MIC Enterococcus faecium (GC 2243) ([1]; strain GC 2243): 16 µg/mL (≈ 11.2 µM)
MIC Enterococcus faecalis (GC 2691) ([1]; strain GC 2691): 0.5 µg/mL (≈ 0.35 µM)
MIC Enterococcus faecalis (GC 3059) ([1]; strain GC 3059): 0.5 µg/mL (≈ 0.35 µM)
MIC Enterococcus faecalis (GC 4552) ([1]; strain GC 4552): >0.5 µg/mL
MIC Enterococcus faecalis (GC 4553) ([1]; strain GC 4553): 0.5 µg/mL (≈ 0.35 µM)
MIC Enterococcus faecalis (GC 4554) ([1]; strain GC 4554): >0.5 µg/mL
MIC Enterococcus faecium (GC 4556) ([1]; strain GC 4556): 16 µg/mL (≈ 11.2 µM)
MIC Enterococcus faecium (GC 4557) ([1]; strain GC 4557): 2 µg/mL (≈ 1.4 µM)
MIC Enterococcus avium (GC 4558) ([1]; strain GC 4558): 0.5 µg/mL (≈ 0.35 µM)
MIC Enterococcus faecalis (GC 6189) ([1]; strain GC 6189): 0.5 µg/mL (≈ 0.35 µM)
MIC Coagulase Negative Staphylococcus (GC 4547) [2]: 2 µg/mL (≈ 1.4 µM)
MIC Coagulase Negative Staphylococcus (GC 4548) [2]: 2 µg/mL (≈ 1.4 µM)
MIC Coagulase Negative Staphylococcus (GC 4549) [2]: 2 µg/mL (≈ 1.4 µM)
MIC Coagulase Negative Staphylococcus (GC 4551) [2]: 4 µg/mL (≈ 2.8 µM)
MIC Coagulase Negative Staphylococcus (GC 6257) [2]: 1 µg/mL (≈ 0.7 µM)
MIC Staphylococcus aureus (ATCC 29213) [2]: 0.5 µg/mL (≈ 0.35 µM)
MIC Staphylococcus aureus (GC 1131) [2]: 0.5 µg/mL (≈ 0.35 µM)
MIC Staphylococcus aureus (GC 3051) [2]: 0.5 µg/mL (≈ 0.35 µM)
MIC Staphylococcus aureus (GC 3053) [2]: 0.5 µg/mL (≈ 0.35 µM)
MIC Staphylococcus aureus (GC 4541) [2]: 0.5 µg/mL (≈ 0.35 µM)
MIC Staphylococcus aureus (GC 4542) [2]: 0.5 µg/mL (≈ 0.35 µM)
MIC Staphylococcus aureus (GC 4544) [2]: 0.5 µg/mL (≈ 0.35 µM)
MIC Staphylococcus aureus (GC 4545) [2]: 0.5 µg/mL (≈ 0.35 µM)
MIC Staphylococcus aureus-SMITH (GC 4543) [2]: 0.5 µg/mL (≈ 0.35 µM)
MIC Staphylococcus haemolyticus (GC 4546) [2]: 2 µg/mL (≈ 1.4 µM)
MIC Staphylococcus aureus (ATCC 29213) ([2]; strain ATCC 29213): 0.5 µg/mL (≈ 0.35 µM)
MIC Staphylococcus aureus (GC 1131) ([2]; strain GC 1131): 0.5 µg/mL (≈ 0.35 µM)
MIC Staphylococcus aureus (GC 3051) ([2]; strain GC 3051): 0.5 µg/mL (≈ 0.35 µM)
MIC Staphylococcus aureus (GC 3053) ([2]; strain GC 3053): 0.5 µg/mL (≈ 0.35 µM)
MIC Staphylococcus aureus (GC 4541) ([2]; strain GC 4541): 0.5 µg/mL (≈ 0.35 µM)
MIC Staphylococcus aureus (GC 4542) ([2]; strain GC 4542): 0.5 µg/mL (≈ 0.35 µM)
MIC Staphylococcus aureus (GC 4544) ([2]; strain GC 4544): 0.5 µg/mL (≈ 0.35 µM)
MIC Staphylococcus aureus (GC 4545) ([2]; strain GC 4545): 0.5 µg/mL (≈ 0.35 µM)
MIC Streptococcus agalactiae (GC 4564) [3]: 1 µg/mL (≈ 0.7 µM)
MIC Streptococcus pneumoniae (ATCC 6301) [3]: 0.25 µg/mL (≈ 0.175 µM)
MIC Streptococcus pneumoniae (GC 1894) [3]: 0.25 µg/mL (≈ 0.175 µM)
MIC Streptococcus pneumoniae (GC 4565) [3]: 0.5 µg/mL (≈ 0.35 µM)
MIC Streptococcus pyogenes (GC 4563) [3]: 0.12 µg/mL (≈ 0.084 µM)
MIC Streptococcus pneumoniae (ATCC 6301) ([3]; strain ATCC 6301): 0.25 µg/mL (≈ 0.175 µM)
MIC Streptococcus pneumoniae (GC 1894) ([3]; strain GC 1894): 0.25 µg/mL (≈ 0.175 µM)
MIC Streptococcus pyogenes (GC 4563) ([3]; strain GC 4563): 0.12 µg/mL (≈ 0.084 µM)
MIC Streptococcus agalactiae (GC 4564) ([3]; strain GC 4564): 1 µg/mL (≈ 0.7 µM)
MIC Streptococcus pneumoniae (GC 4565) ([3]; strain GC 4565): 0.5 µg/mL (≈ 0.35 µM)
MIC Escherichia coli (ATCC 25922) [4]: >0.5 µg/mL
MIC Escherichia coli (GC 4559) [4]: >0.5 µg/mL
MIC Escherichia coli (GC 4560) [4]: 0.5 µg/mL (≈ 0.35 µM)
